Publication PMC6257821, “Selective agonist of TRPML2 reveals direct role in chemokine release from innate immune cells” (eLife, 2018)

Tests used:
Assay type in all cases: cell-based
[1] = target: T1, mTRPML2 (Mus musculus, UniProt Q8K595); test: fura-2 calcium imaging dose-response in HEK293 cells; endolysosomal patch-clamp in LPS-stimulated mouse macrophages
T1 construct: gene Mcoln2
T1 sequence (Q8K595 1-566): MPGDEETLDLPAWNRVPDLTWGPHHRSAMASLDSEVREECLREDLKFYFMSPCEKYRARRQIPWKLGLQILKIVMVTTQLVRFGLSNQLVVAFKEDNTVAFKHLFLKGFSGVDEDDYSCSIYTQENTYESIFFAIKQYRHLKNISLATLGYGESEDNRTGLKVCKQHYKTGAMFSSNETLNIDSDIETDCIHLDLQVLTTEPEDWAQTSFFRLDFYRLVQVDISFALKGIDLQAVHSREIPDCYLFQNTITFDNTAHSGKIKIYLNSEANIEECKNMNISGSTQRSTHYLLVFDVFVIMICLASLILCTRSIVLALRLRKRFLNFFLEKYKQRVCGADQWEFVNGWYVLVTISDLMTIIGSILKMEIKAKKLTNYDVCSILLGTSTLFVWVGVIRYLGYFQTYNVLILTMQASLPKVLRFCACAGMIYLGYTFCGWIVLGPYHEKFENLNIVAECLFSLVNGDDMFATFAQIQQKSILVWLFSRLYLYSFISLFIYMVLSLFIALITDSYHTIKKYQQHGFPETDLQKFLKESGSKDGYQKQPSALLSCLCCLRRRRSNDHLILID

[2] = target: T2, hTRPML2 (Homo sapiens, UniProt Q8IZK6); test: fura-2 calcium imaging dose-response and endolysosomal patch-clamp in HEK293 cells; G425A mutation abrogates effect
T2 construct: gene MCOLN2; hTRPML2-YFP
T2 sequence (Q8IZK6 1-566): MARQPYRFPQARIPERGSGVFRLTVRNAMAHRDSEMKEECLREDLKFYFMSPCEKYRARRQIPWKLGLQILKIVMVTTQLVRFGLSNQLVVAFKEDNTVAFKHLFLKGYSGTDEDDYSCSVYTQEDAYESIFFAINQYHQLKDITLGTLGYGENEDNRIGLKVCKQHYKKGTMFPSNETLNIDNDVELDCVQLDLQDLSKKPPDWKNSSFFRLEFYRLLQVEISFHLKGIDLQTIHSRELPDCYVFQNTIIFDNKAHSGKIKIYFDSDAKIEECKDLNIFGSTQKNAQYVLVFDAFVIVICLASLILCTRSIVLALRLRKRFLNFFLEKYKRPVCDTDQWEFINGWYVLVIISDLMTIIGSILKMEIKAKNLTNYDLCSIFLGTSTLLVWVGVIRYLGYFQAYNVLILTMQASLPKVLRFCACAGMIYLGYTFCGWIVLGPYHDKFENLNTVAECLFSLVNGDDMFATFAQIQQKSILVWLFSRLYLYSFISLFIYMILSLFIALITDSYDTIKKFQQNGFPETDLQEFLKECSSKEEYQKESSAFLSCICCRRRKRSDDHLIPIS

[3] = target: T3, hTRPML3 (Homo sapiens, UniProt Q8TDD5); test: endolysosomal patch-clamp (LE/LY, HEK293), […], positive control; design: gene MCOLN3
T3 sequence (Q8TDD5 1-553): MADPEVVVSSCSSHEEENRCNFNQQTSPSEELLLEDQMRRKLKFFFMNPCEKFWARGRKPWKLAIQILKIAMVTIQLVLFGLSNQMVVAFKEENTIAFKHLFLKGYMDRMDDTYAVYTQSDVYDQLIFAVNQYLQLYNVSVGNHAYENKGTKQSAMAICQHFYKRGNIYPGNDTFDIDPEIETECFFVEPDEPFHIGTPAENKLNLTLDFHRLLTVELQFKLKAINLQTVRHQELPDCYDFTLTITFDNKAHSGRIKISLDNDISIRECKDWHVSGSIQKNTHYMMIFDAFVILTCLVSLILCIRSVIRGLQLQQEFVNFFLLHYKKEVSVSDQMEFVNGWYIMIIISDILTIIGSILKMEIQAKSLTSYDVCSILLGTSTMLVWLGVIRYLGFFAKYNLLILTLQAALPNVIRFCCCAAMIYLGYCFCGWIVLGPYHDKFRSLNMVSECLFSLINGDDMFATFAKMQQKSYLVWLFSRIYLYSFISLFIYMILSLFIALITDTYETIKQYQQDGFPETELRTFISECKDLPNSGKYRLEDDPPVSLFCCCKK

[4] = target: T4, hTRPML1 (Homo sapiens, UniProt Q9GZU1); test: as above
T4 construct: gene MCOLN1
T4 sequence (Q9GZU1 whole entry): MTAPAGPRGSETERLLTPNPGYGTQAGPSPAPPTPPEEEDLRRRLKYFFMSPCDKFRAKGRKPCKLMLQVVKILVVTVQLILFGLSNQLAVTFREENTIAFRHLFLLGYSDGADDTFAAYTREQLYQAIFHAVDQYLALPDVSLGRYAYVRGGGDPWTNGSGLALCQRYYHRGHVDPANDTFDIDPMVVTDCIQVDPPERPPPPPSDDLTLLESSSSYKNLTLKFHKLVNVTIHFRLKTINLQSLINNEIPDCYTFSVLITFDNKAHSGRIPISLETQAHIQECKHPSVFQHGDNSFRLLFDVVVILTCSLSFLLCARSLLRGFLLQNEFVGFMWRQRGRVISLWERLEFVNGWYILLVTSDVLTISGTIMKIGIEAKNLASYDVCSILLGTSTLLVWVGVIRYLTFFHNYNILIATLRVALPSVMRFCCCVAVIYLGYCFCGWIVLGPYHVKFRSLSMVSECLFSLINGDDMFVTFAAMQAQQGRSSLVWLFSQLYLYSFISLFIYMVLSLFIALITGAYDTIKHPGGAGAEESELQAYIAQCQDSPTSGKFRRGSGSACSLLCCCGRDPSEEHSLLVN

Clc1cccc(Cl)c1C1=NOC2C3CCC(C3)C12 (stereo not shown) [EVP-22, ML2-SA1] gave an EC50 [1] of 2380 ± 10 nM and an EC50 [2] of 1240 ± 120 nM.

In the case of CC1CC(C)(C)N(C(=O)CN2C(=O)c3ccccc3C2=O)c2ccccc21 (stereo not shown) [ML-SA1], the “endolysosomal patch-clamp (LE/LY, HEK293), 10 μM, positive control” value [3] is reported as “the latter ones were robustly activated by ML-SA1 as a positive control” and the “endolysosomal patch-clamp (LE/LY, HEK293), 10 μM, positive control” value [4] is reported as “the latter ones were robustly activated by ML-SA1 as a positive control”.
